Source: patent EP0565634B1, “ANGIOTENSIN II RECEPTOR BLOCKING COMPOSITIONS” (SMITHKLINE BEECHAM CORPORATION, priority 1990, dated 1992)
Where two headings read alike, the source gives them in different places.

What was measured:
[1] = molecular target: vascular angiotensin II receptors; assay: Radioligand binding assay, displacement of 125I-angiotensin II; conditions: particular fraction from rat mesenteric arteries, 80 pM 125I-angiotensin II, 1 hour at 25°C
Description: (§1) Angiotensin II antagonist activity of the compounds of Formula (I) is assessed by in vitro and in vivo methods. In vitro antagonist activity is determined by the ability of the compounds to compete with ^125I-angiotensin II for binding to vascular angiotensin II receptors and by their ability to antagonize the contractile response to angiotensin II in the isolated rabbit aorta. In vivo activity is evaluated by the efficacy of the compounds to inhibit the pressor response to exogenous angiotensin II in conscious rats and to lower blood pressure in a rat model of renin dependent hypertension.
The radioligand binding assay is a modification of a method previously described in detail (Gunther et al., Circ. Res. 47:278, 1980). A particular fraction from rat mesenteric arteries is incubated in Tris buffer with 80 pM of ^125I-angiotensin II with or without angiotensin II antagonists for 1 hour at 25°C. The incubation is terminated by rapid filtration and receptor bound ^125I-angiotensin II trapped on the filter is quantitated with a gamma counter. The potency of angiotensin II antagonists is expressed as the IC50 which is the concentration of antagonist needed to displace 50% of the total specifically bound angiotensin II. The IC50 of (E)-3-[2-n-butyl-1-{(4-carboxyphenyl)methyl}-1H-imidazol-5-yl]-2-(2-thienyl)methyl-2-propenoic acid is about 1.0 nM.

[2] = tested on: pressor response to exogenous angiotensin II; assay: Inhibition of pressor response to angiotensin II in conscious rats; type: in vivo; conditions: Rattus norvegicus, intravenous injections of 250 mg/kg angiotensin II, read-out: IC50 (dose needed to produce 50% inhibition of the control response to angiotensin II)
Description: as §1
Rats are prepared with indwelling femoral arterial and venous catheters and a stomach tube (Gellai et al., Kidney Int. 15:419, 1979). Two to three days following surgery the rats are placed in a restrainer and blood pressure is continuously monitored from the arterial catheter with a pressure transducer and recorded on a polygraph. The change in mean arterial pressure in response to intravenous injections of […] angiotensin II is compared at various time points prior to and following the administration of the compounds intravenously or orally at doses of 0.1 to 300 mg/kg. The dose of compound needed to produce 50% inhibition of the control response to angiotensin II (IC50) is used to estimate the potency of the compounds.

mean arterial pressure = assay: Antihypertensive activity in renal artery ligated, renin-dependent hypertensive conscious rats; type: in vivo; conditions: Rattus norvegicus, po, 192 h, orally, seven to eight days following ligation, read-out: IC30 (dose needed to reduce mean arterial pressure by 30 mmHg)
Description: as §1
The antihypertensive activity of the compounds is measured by their ability to reduce mean arterial pressure in conscious rats made renin-dependent hypertensive by ligation of the left renal artery (Cangiano et al;., J. Pharmacol. Exp. Ther. 208:310, 1979). Renal artery ligated rats are prepared with indwelling catheters as described above. Seven to eight days following renal artery ligation, the time at which plasma renin levels are highest, the conscious rats are placed in restrainers and mean arterial pressure is continuously recorded prior to and following the administration of the compounds intravenously or orally. The dose of compound needed to reduce mean arterial pressure by 30 mmHg (IC30) is used as an estimate of potency. […]

IC50 [1]: ~1 nM
SMILES: CCCCc1ncc(/C=C(\Cc2cccs2)C(=O)O)n1Cc1ccc(C(=O)O)cc1 [(E)-3-[2-n-butyl-1-{(4-carboxyphenyl)methyl}-1H-imidazol-5-yl]-2-(2-thienyl)methyl-2-propenoic acid]
ED50 ([2]; i.v.): ~0.1 mg/kg
ED50 ([2]; po, orally): ~5.5 mg/kg
ED (30 mmHg) (mean arterial pressure): ~10 mg/kg
